Consider seven compounds from patent US20250228239A1, “MOLECULES HAVING PESTICIDAL UTILITY, AND INTERMEDIATES, COMPOSITIONS, AND PROCESSES, RELATED THERETO” (priority 2024, published 2025).

As usually defined, the mortality is the share of the test organisms that died.

Molecules are shown by their SMILES. Where two headings read alike, the source gives them in different places.

Common to all, as to type: in vivo
Data set [1] deals with Yellow Fever Mosquito (Aedes aegypti, AEDSAE). In outline: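 Mortality after 3 days at room temperature is the read-out, scored well by well and converted to a rating. Test molecules came from 4000 ppm stocks in DMSO, further diluted in 90:10 water/acetone, and were exposed to roughly 1-day-old larvae suspended in liver-powder water.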
Data set [2] deals with Beet Armyworm (Spodoptera exigua, LAPHEG). Briefly: Bioassays on Beet Armyworm (BAW), 128-well diet tray assay. The settings on record: Spodoptera exigua. In outline:
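Percent larval mortality, averaged across eight wells, scored after five to seven days at 25° C. under 14:10 light-dark. Each well held one to five second instars feeding on diet dosed at 50 μg/cm^2 with compound from 90:10 acetone-water, solvent dried off.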

Data set [3] concerns Cabbage Looper (Trichoplusia ni, TRIPNI). Briefly: Bioassays on Cabbage Looper (CL), 128-well diet tray assay. The settings on record: Trichoplusia ni. In outline: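 Each of eight wells receives artificial diet treated at 50 μg/cm^2 with the test molecule, then one to five second-instar larvae. Incubation runs five to seven days at 25° C with a 14:10 light-dark cycle under vented covers. Mortality is scored per well as a percentage and averaged.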

[4] abbreviates: Table ABC: Biological Results, species YFM.
[5] abbreviates: Table ABC: Biological Results, species BAW, read-out: BAW.
Where [6] appears, read: Table ABC: Biological Results, species CL, read-out: CL.
Where [7] appears, read: Beet Armyworm, Table ABC / ABC-DP rating, read-out: BAW rating.
[8] abbreviates: Cabbage Looper, Table ABC / ABC-DP rating, read-out: CL rating.

Take `Cc1c(N)ccc(NC(=O)c2cc(NC(=O)[C@H]3[C@H](c4ccc(F)c(C(F)(F)F)c4)C3(Cl)Cl)ccc2Cl)c1C` [F1389, N-(4-Amino-2,3-dimethylphenyl)-2-chloro-5-((1R,3R)-2,2-dichloro-3-(4-fluoro-3-(trifluoromethyl)phenyl)cyclopropane-1-carboxamido)benzamide]: the YFM result in data set [1] (setting [4]) was “A (80–100)”. For the same compound, the pest or weed control at 50 µg/cm2 in data set [2] (setting [5]) and in data set [3] (setting [6]) was 50 to 100% in each case.

Consider `CC(=O)N(C)NC(=O)c1cc(NC(=O)[C@H]2[C@H](c3cc(Cl)cc(Cl)c3)C2(Cl)Cl)ccc1Cl` (relative stereo) [F2522, trans-N-(3-(2-Acetyl-2-methylhydrazine-1-carbonyl)-4-chlorophenyl)-2,2-dichloro-3-(3,5-dichlorophenyl)cyclopropane-1-carboxamide], for which the YFM rating result in data set [1] (Yellow Fever Mosquito, Table ABC / ABC-DP rating) is “A (80–100)”. Further, the pest or weed control at 50 µg/cm2 in data set [2] (setting [7]) and in data set [3] (setting [8]) was 50 to 100% throughout.

With `O=C(NNc1ccc(OC(F)(F)C(F)(F)F)cc1)c1cc(NC(=O)[C@H]2[C@H](c3cc(Cl)cc(Cl)c3)C2(Cl)Cl)ccc1Cl` (relative stereo) [F2565, trans-2,2-Dichloro-N-(4-chloro-3-(2-(4-(perfluoroethoxy)phenyl)hydrazine-1-carbonyl)phenyl)-3-(3,5-dichlorophenyl)cyclopropane-1-carboxamide], the “YFM % Control (or Mortality) rating” value in data set [1] (about 1 day-old larvae, 4000 ppm master solution diluted with 90:10 water/acetone, 15 μL per well plus 220 μL larval mixture, 3 days, mortality) is given as “D (No activity noticed in this bioassay)”. Further, the mortality at 50 µg/cm2 in data set [2] (168 h, second instar larvae, 50 μg/cm^2 of test molecule on artificial diet, 25° C., five to seven days, average of eight wells, read-out: BAW % Control (or Mortality) rating) was 50 to 100%; in data set [3] (168 h, second instar larvae, 50 μg/cm^2 of test molecule on artificial diet, 25° C., five to seven days, average of eight wells, read-out: CL % Control (or Mortality) rating), 50 to 100%. Besides, the pest or weed control at 50 µg/cm2 in data set [2] (setting [7]) and in data set [3] (setting [8]) was 50 to 100% each time.

Turning to `Cc1c(F)cc(NC(=O)[C@H]2[C@H](c3ccc(F)c(Cl)c3)C2(Cl)Cl)cc1C(=O)Nc1ccc(F)cc1` (relative stereo) [F1278, trans-5-(2,2-Dichloro-3-(3-chloro-4-fluorophenyl)cyclopropane-1-carboxamido)-3-fluoro-N-(4-fluorophenyl)-2-methylbenzamide], the YFM result in data set [1] (setting [4]) is listed as “A (80–100)”. The pest or weed control at 50 µg/cm2 in data set [2] (setting [5]) and in data set [3] (setting [6]) was 50 to 100% each time.

Regarding `Nc1c(F)ccc(NC(=O)c2cc(NC(=O)[C@H]3[C@H](c4cccc(F)c4)C3(Cl)Cl)ccc2Cl)c1F` (relative stereo) [F1596, trans-N-(3-Amino-2,4-difluorophenyl)-2-chloro-5-(2,2-dichloro-3-(3-fluorophenyl)cyclopropane-1-carboxamido)benzamide], the YFM result in data set [1] (Yellow Fever Mosquito, rating class) was “A (80–100)”. Moreover, the pest or weed control at 50 µg/cm2 fell in the range of 50 to 100% in data set [2] (Beet Armyworm, rating class, read-out: BAW) and 50 to 100% in data set [3] (Cabbage Looper, rating class, read-out: CL).

Take `Cc1cc([C@H]2[C@H](C(=O)Nc3ccc(Cl)c(C(=O)Nc4ccc(F)cc4F)c3)C2(Cl)Cl)cc(C(F)(F)F)c1F` (relative stereo) [F1066, trans-2-Chloro-5-(2,2-dichloro-3-(4-fluoro-3-methyl-5-(trifluoromethyl)phenyl)cyclopropane-1-carboxamido)-N-(2,4-difluorophenyl)benzamide]: in data set [1] (setting [4]), the YFM result is recorded as “A (80–100)”. In addition, the pest or weed control at 50 µg/cm2 in data set [2] (setting [5]) and in data set [3] (setting [6]) was 50 to 100% each time.

As for `C=Cc1cc(NC(=O)c2cc(NC(=O)[C@H]3[C@H](c4cc(Cl)cc(Cl)c4)C3(Cl)Cl)ccc2Cl)c(F)cc1F` (relative stereo) [F1315, trans-2-Chloro-5-(2,2-dichloro-3-(3,5-dichlorophenyl)cyclopropane-1-carboxamido)-N-(2,4-difluoro-5-vinylphenyl)benzamide], the YFM entry in data set [1] (setting [4]) was “A (80–100)”. Moreover, the pest or weed control at 50 µg/cm2 in data set [2] (setting [5]) and in data set [3] (setting [6]) was 50 to 100% each time.
